Experimental data: ChEMBL document CHEMBL1201862, “PubChem BioAssay data set” (2004)
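Step 1: Grow cells in 96-well plates. Step 2: Expose to compound for 48 hours at 5 concentrations. Step 3: Interpolate endpoints linearly; if unreached, use highest concentration. GI50 marks 50% less growth.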 Calls of active or inactive are those of the source. No stated cut-off is given here; in the data, active = GI50 up to about 1.1 µM and inactive = higher.

Tests used:
Assay in all cases: NCI-60 cell line screen, 48 h
KM12 = system: KM12
SN12C = system: SN12C
OVCAR-8 = system: OVCAR-8
M14 = system: M14
SF-539 = system: SF-539
OVCAR-5 = system: OVCAR-5
MOLT-4 = system: MOLT-4
HT-29 = system: HT-29
K562 = system: K562
TK-10 = system: TK-10
SK-OV-3 = system: SK-OV-3
NCI-H522 = system: NCI-H522
SNB-75 = system: SNB-75
SNB-19 = system: SNB-19
UO-31 = system: UO-31
A498 = system: A498

Measured: GI50

O=NN(CCCl)C(=O)NCc1ccc[n+]([O-])c1
inactive: KM12 > 100 µM | SN12C > 100 µM | OVCAR-8 > 100 µM | M14 > 100 µM | SF-539 43.9 µM | OVCAR-5 > 100 µM | MOLT-4 60.8 µM | HT-29 > 100 µM | K562 > 100 µM | TK-10 > 100 µM | SK-OV-3 > 100 µM

Cc1cccc(C2SCc3nc4ccccc4n32)c1 (stereo unspecified)
inactive: NCI-H522 17.7 µM | KM12 19.8 µM | SN12C 19.5 µM | OVCAR-8 36.1 µM | M14 26.7 µM | SF-539 33.8 µM | OVCAR-5 5.25 µM | MOLT-4 25.9 µM | HT-29 27.9 µM | K562 14.2 µM | TK-10 21.9 µM | SNB-75 2 µM | SK-OV-3 24.7 µM

COc1ccc(-c2cc3ccccc3[nH]c2=O)cc1OC
inactive: NCI-H522 > 100 µM | KM12 > 100 µM | SN12C > 100 µM | OVCAR-8 > 100 µM | SNB-19 > 100 µM | M14 > 100 µM | UO-31 > 100 µM | SF-539 > 100 µM | OVCAR-5 > 100 µM | MOLT-4 > 100 µM | HT-29 > 100 µM | K562 > 100 µM | TK-10 > 100 µM | SNB-75 > 100 µM | SK-OV-3 > 100 µM

N#CC(N)(C(=O)C(=O)NCCCNC(=O)C(=O)C(N)(C#N)c1ccc(Cl)cc1)c1ccc(Cl)cc1 (stereo unspecified)
inactive: NCI-H522 > 100 µM | KM12 > 100 µM | SN12C > 100 µM | OVCAR-8 > 100 µM | SNB-19 > 100 µM | M14 > 100 µM | A498 > 100 µM | UO-31 > 100 µM | SF-539 > 100 µM | OVCAR-5 > 100 µM | MOLT-4 > 100 µM | HT-29 > 100 µM | K562 95.3 µM | TK-10 > 100 µM | SNB-75 > 100 µM | SK-OV-3 > 100 µM

Cc1ccc(C)c(N2C(=O)C(=O)C(c3nc4ccccc4o3)C(=O)C2=O)c1
inactive: KM12 > 100 µM | SN12C > 100 µM | OVCAR-8 > 100 µM | SNB-19 > 100 µM | M14 36.1 µM | A498 > 100 µM | UO-31 > 100 µM | SF-539 > 100 µM | MOLT-4 27.2 µM | HT-29 49.5 µM | TK-10 > 100 µM | SNB-75 95.1 µM | SK-OV-3 > 100 µM

COc1cccc2nc3cc(C)c(C)cc3nc12
inactive: NCI-H522 95.9 µM | KM12 > 100 µM | SN12C > 100 µM | OVCAR-8 > 100 µM | SNB-19 > 100 µM | M14 > 100 µM | A498 > 100 µM | UO-31 61.2 µM | SF-539 > 100 µM | OVCAR-5 > 100 µM | MOLT-4 > 100 µM | HT-29 > 100 µM | K562 > 100 µM | TK-10 > 100 µM | SNB-75 > 100 µM | SK-OV-3 78.3 µM

COC(=O)CCC1CCc2c(OC)ccc(O)c2C1=O (stereo unspecified)
inactive: NCI-H522 > 100 µM | KM12 > 100 µM | SN12C > 100 µM | OVCAR-8 > 100 µM | SNB-19 > 100 µM | M14 > 100 µM | A498 > 100 µM | UO-31 55.8 µM | SF-539 > 100 µM | MOLT-4 > 100 µM | HT-29 > 100 µM | K562 > 100 µM | TK-10 > 100 µM | SNB-75 66.4 µM | SK-OV-3 > 100 µM

CC1=CCC2(C#N)CCC1C2=O (stereo unspecified)
inactive: NCI-H522 > 100 µM | KM12 > 100 µM | SN12C > 100 µM | OVCAR-8 > 100 µM | SNB-19 > 100 µM | M14 > 100 µM | A498 > 100 µM | UO-31 > 100 µM | SF-539 > 100 µM | OVCAR-5 > 100 µM | MOLT-4 > 100 µM | HT-29 > 100 µM | K562 > 100 µM | TK-10 > 100 µM | SK-OV-3 > 100 µM

CCC1(Cl)C(=O)NC(=O)N(C2CC(O)C(CO)O2)C1N=[N+]=[N-] (stereo unspecified)
inactive: NCI-H522 > 100 µM | SN12C > 100 µM | OVCAR-8 > 100 µM | SNB-19 > 100 µM | M14 > 100 µM | A498 > 100 µM | UO-31 > 100 µM | SF-539 > 100 µM | OVCAR-5 > 100 µM | MOLT-4 > 100 µM | HT-29 > 100 µM | K562 > 100 µM | TK-10 > 100 µM | SNB-75 > 100 µM | SK-OV-3 > 100 µM

Nc1nc2ncn(CC(O)COC(=O)c3ccccc3)c2c(=O)[nH]1 (stereo unspecified)
inactive: NCI-H522 > 100 µM | KM12 > 100 µM | SN12C > 100 µM | OVCAR-8 > 100 µM | M14 > 100 µM | A498 > 100 µM | UO-31 > 100 µM | SF-539 > 100 µM | OVCAR-5 > 100 µM | HT-29 > 100 µM | K562 > 100 µM | TK-10 > 100 µM | SNB-75 > 100 µM | SK-OV-3 > 100 µM

CC/C(CC(=O)CCC(=O)Nc1c(C)cccc1C)=N\NC(=O)NN
inactive: KM12 > 100 µM | SN12C > 100 µM | OVCAR-8 > 100 µM | SNB-19 > 100 µM | M14 > 100 µM | A498 > 100 µM | UO-31 > 100 µM | SF-539 > 100 µM | OVCAR-5 > 100 µM | MOLT-4 > 100 µM | HT-29 > 100 µM | K562 > 100 µM | TK-10 > 100 µM

COC(=O)c1cc2c3ccccc3n(C(C)=O)c2cn1
inactive: NCI-H522 53.1 µM | KM12 80.5 µM | SN12C > 100 µM | OVCAR-8 56.4 µM | SNB-19 > 100 µM | M14 > 100 µM | UO-31 > 100 µM | SF-539 > 100 µM | OVCAR-5 > 100 µM | MOLT-4 41.6 µM | HT-29 > 100 µM | K562 59.2 µM | TK-10 45.8 µM | SNB-75 25.6 µM | SK-OV-3 > 100 µM

CC1=CC(=O)CCC2(C)C1CC[C@@H]2OC=O (stereo partly specified)
inactive: NCI-H522 > 100 µM | KM12 > 100 µM | SN12C > 100 µM | OVCAR-8 > 100 µM | SNB-19 > 100 µM | M14 > 100 µM | UO-31 > 100 µM | SF-539 > 100 µM | OVCAR-5 > 100 µM | MOLT-4 > 100 µM | HT-29 > 100 µM | K562 > 100 µM | TK-10 > 100 µM | SNB-75 93.5 µM | SK-OV-3 > 100 µM

COc1ccc([C@H]2[C@@H]3CCc4ccccc4C3=NN2C(N)=S)cc1OC
inactive: NCI-H522 15.9 µM | KM12 47.9 µM | SN12C > 100 µM | OVCAR-8 74.3 µM | SNB-19 77.3 µM | M14 67.1 µM | A498 > 100 µM | UO-31 36.1 µM | SF-539 > 100 µM | OVCAR-5 > 100 µM | MOLT-4 31.1 µM | HT-29 40 µM | K562 22.4 µM | TK-10 > 100 µM | SK-OV-3 > 100 µM
